Reference: patent US20240101521A1, “DIAMINOTRIAZINE COMPOUNDS” (BASF SE, priority 2021, published 2024)

Experiments:
Test in all cases: greenhouse pre-emergence herbicidal test
Type in all cases: in vivo
Setaria faberi = conditions: scale 0 to 100
Text: (§1) The culture containers used were plastic flowerpots containing loamy sand with approximately 3.0% of humus as the substrate. The seeds of the test plants were sown separately for each species.
(§2) For the pre-emergence treatment, the active ingredients, which had been suspended or emulsified in water, were applied directly after sowing by means of finely distributing nozzles. The containers were irrigated gently to promote germination and growth and subsequently covered with transparent plastic hoods until the plants had rooted. This cover caused uniform germination of the test plants, unless this had been impaired by the active ingredients. For the post-emergence treatment, the test plants were first grown to a height of 3 to 15 cm, depending on the plant habit, and only then treated with the active ingredients which had been suspended or emulsified in water. For this purpose, the test plants were either sown directly and grown in the same containers, or they were first grown separately as seedlings and transplanted into the test containers a few days prior to treatment.
(§3) Depending on the species, the plants were kept at 10-25° C. or 20-35° C., respectively.
(§4) The test period extended over 2 to 4 weeks. During this time, the plants were tended, and their response to the individual treatments was evaluated.
(§5) Evaluation was carried out using a scale from 0 to 100. 100 means no emergence of the plants, or complete destruction of at least the aerial moieties, and 0 means no damage, or normal course of growth. A moderate herbicidal activity is given at values of at least 60, a good herbicidal activity is given at values of at least 70, and a very good herbicidal activity is given at values of at least 85.
(§6) The plants used in the greenhouse experiments were of the following species: […]

Alopecurus myosuroides = conditions: scale 0 to 100
Text: as §1, §2, §3, §4, §5, §6

Echinochloa crus-galli = conditions: scale 0 to 100
Text: as §1, §2, §3, §4, §5, §6

Amaranthus retroflexus = conditions: scale 0 to 100
Text: as §1, §2, §3, §4, §5, §6

Abutilon theophrasti = conditions: scale 0 to 100
Text: as §1, §2, §3, §4, §5, §6

Lolium multiflorum = conditions: pre-emergence, 62,5 g/ha, scale 0 to 100
Text: as §1, §2, §3, §4, §5, §6

CC=C(Cl)COc1c(Cl)cc(F)c(F)c1Nc1nc(N)nc(C(C)(C)F)n1 [Example 53]
herbicidal activity (Setaria faberi; pre-emergence, 62,5 g/ha): 100% | herbicidal activity (Alopecurus myosuroides; pre-emergence, 62,5 g/ha): 90% | herbicidal activity (Echinochloa crus-galli; pre-emergence, 62,5 g/ha): 98%

COc1c(Br)cc(F)c(F)c1Nc1nc(N)nc(C2(F)CC2)n1 [Example 55]
herbicidal activity (Amaranthus retroflexus; pre-emergence, 62,5 g/ha): 100% | herbicidal activity (Echinochloa crus-galli; pre-emergence, 62,5 g/ha): 100% | herbicidal activity (Abutilon theophrasti; pre-emergence, 62,5 g/ha): 100%

CC#CCOc1c(Cl)cc(Cl)c(F)c1Nc1nc(N)nc(C(C)(C)F)n1 [Example 61]
herbicidal activity (Amaranthus retroflexus; pre-emergence, 31 g/ha): 100% | herbicidal activity (Echinochloa crus-galli; pre-emergence, 31 g/ha): 100% | herbicidal activity (Abutilon theophrasti; pre-emergence, 31 g/ha): 100%

COc1c(Cl)cc(Cl)c(F)c1Nc1nc(N)nc(C(C)F)n1 (stereo not drawn) [Example 63]
herbicidal activity (Setaria faberi; pre-emergence, 31 g/ha): 100% | herbicidal activity (Amaranthus retroflexus; pre-emergence, 31 g/ha): 80% | herbicidal activity (Alopecurus myosuroides; pre-emergence, 31 g/ha): 80%

C#CC(C)Oc1c(Br)cc(F)c(F)c1Nc1nc(N)nc(C2(F)CCCC2)n1 (stereo not drawn) [Example 97]
herbicidal activity (Setaria faberi; pre-emergence, 62 g/ha): 85% | herbicidal activity (Amaranthus retroflexus; pre-emergence, 62 g/ha): 85% | herbicidal activity (Alopecurus myosuroides; pre-emergence, 62 g/ha): 70%

CC#CC(C)Oc1c(Cl)cc(F)c(F)c1Nc1nc(N)nc(C(C)(C)F)n1 (stereo not drawn) [Example 98]
herbicidal activity (Setaria faberi; pre-emergence, 62 g/ha): 100% | herbicidal activity (Amaranthus retroflexus; pre-emergence, 62 g/ha): 100% | herbicidal activity (Alopecurus myosuroides; pre-emergence, 62 g/ha): 100%

C#CC(C)Oc1c(Cl)cc(F)c(F)c1Nc1nc(N)nc(C(C)(C)F)n1 (stereo not drawn) [Example 99]
herbicidal activity (Setaria faberi; pre-emergence, 62 g/ha): 100% | herbicidal activity (Amaranthus retroflexus; pre-emergence, 62 g/ha): 100% | herbicidal activity (Abutilon theophrasti; pre-emergence, 62 g/ha): 100%

CC#CC(C)Oc1c(Cl)cc(F)c(F)c1Nc1nc(N)nc(C2(F)CCCC2)n1 (stereo not drawn) [Example 100]
herbicidal activity (Setaria faberi; pre-emergence, 62 g/ha): 100% | herbicidal activity (Alopecurus myosuroides; pre-emergence, 62 g/ha): 98% | herbicidal activity (Echinochloa crus-galli; pre-emergence, 62 g/ha): 100%

COc1c(Cl)cc(F)c(F)c1Nc1nc(N)nc(C(C)(F)CBr)n1 (stereo not drawn) [Example 114]
herbicidal activity (Setaria faberi; pre-emergence, 62,5 g/ha): 100% | herbicidal activity (Amaranthus retroflexus; pre-emergence, 62,5 g/ha): 100% | herbicidal activity (Abutilon theophrasti; pre-emergence, 62,5 g/ha): 100%

C#CC(C)(F)c1nc(N)nc(Nc2c(F)c(F)cc(Br)c2OC)n1 (stereo not drawn) [Example 115]
herbicidal activity (Amaranthus retroflexus; pre-emergence, 62,5 g/ha): 100% | herbicidal activity (Alopecurus myosuroides; pre-emergence, 62,5 g/ha): 98% | herbicidal activity (Abutilon theophrasti; pre-emergence, 62,5 g/ha): 90%

CCC(C)(F)c1nc(N)nc(Nc2c(F)c(F)cc(Cl)c2OC)n1 (stereo not drawn) [Example 116]
herbicidal activity (Amaranthus retroflexus; pre-emergence, 62,5 g/ha): 100% | herbicidal activity (Alopecurus myosuroides; pre-emergence, 62,5 g/ha): 100% | herbicidal activity (Abutilon theophrasti; pre-emergence, 62,5 g/ha): 100%

CCC(C)(F)c1nc(N)nc(Nc2c(F)c(F)cc(Br)c2OC)n1 (stereo not drawn) [Example 117]
herbicidal activity (Setaria faberi; pre-emergence, 62,5 g/ha): 100% | herbicidal activity (Amaranthus retroflexus; pre-emergence, 62,5 g/ha): 100% | herbicidal activity (Abutilon theophrasti; pre-emergence, 62,5 g/ha): 98%

C#CC(C)(F)c1nc(N)nc(Nc2c(F)c(F)cc(Cl)c2OC)n1 (stereo not drawn) [Example 118]
herbicidal activity (Setaria faberi; pre-emergence, 62,5 g/ha): 100% | herbicidal activity (Amaranthus retroflexus; pre-emergence, 62,5 g/ha): 100% | herbicidal activity (Abutilon theophrasti; pre-emergence, 62,5 g/ha): 100%

CC#CC(Oc1c(F)cc(F)c(F)c1Nc1nc(N)nc(C(C)(C)F)n1)C1CC1 (stereo not drawn) [Example 119]
herbicidal activity (Setaria faberi; pre-emergence, 62,5 g/ha): 85% | herbicidal activity (Amaranthus retroflexus; pre-emergence, 62,5 g/ha): 85% | herbicidal activity (Lolium multiflorum): 70%

COc1c(Br)cc(F)c(F)c1Nc1nc(N)nc(C(C)F)n1 (stereo not drawn) [Example 120]
herbicidal activity (Amaranthus retroflexus; pre-emergence, 62,5 g/ha): 100% | herbicidal activity (Echinochloa crus-galli; pre-emergence, 62,5 g/ha): 100% | herbicidal activity (Abutilon theophrasti; pre-emergence, 62,5 g/ha): 100%

C=CC(C)(F)c1nc(N)nc(Nc2c(F)c(F)cc(Br)c2OC)n1 (stereo not drawn) [Example 121]
herbicidal activity (Setaria faberi; pre-emergence, 62,5 g/ha): 100% | herbicidal activity (Amaranthus retroflexus; pre-emergence, 62,5 g/ha): 100% | herbicidal activity (Abutilon theophrasti; pre-emergence, 62,5 g/ha): 100%

C=CC(C)(F)c1nc(N)nc(Nc2c(F)c(F)cc(Cl)c2OC)n1 (stereo not drawn) [Example 122]
herbicidal activity (Setaria faberi; pre-emergence, 62,5 g/ha): 100% | herbicidal activity (Amaranthus retroflexus; pre-emergence, 62,5 g/ha): 100% | herbicidal activity (Abutilon theophrasti; pre-emergence, 62,5 g/ha): 100%

COc1c(Br)cc(F)c(F)c1Nc1nc(N)nc(C(C)(F)CBr)n1 (stereo not drawn) [Example 123]
herbicidal activity (Setaria faberi; pre-emergence, 62,5 g/ha): 100% | herbicidal activity (Amaranthus retroflexus; pre-emergence, 62,5 g/ha): 100% | herbicidal activity (Alopecurus myosuroides; pre-emergence, 62,5 g/ha): 100%

CC(C)(F)c1nc(N)nc(Nc2c(F)c(F)cc(Br)c2OC/C=C/Cl)n1 [Example 124]
herbicidal activity (Setaria faberi; pre-emergence, 62,5 g/ha): 100% | herbicidal activity (Amaranthus retroflexus; pre-emergence, 62,5 g/ha): 100% | herbicidal activity (Lolium multiflorum): 80%

COc1c(Br)c(F)c(F)c(F)c1Nc1nc(N)nc(C(C)(C)F)n1 [Example 164]
herbicidal activity (Setaria faberi; pre-emergence, 62,5 g/ha): 100% | herbicidal activity (Amaranthus retroflexus; pre-emergence, 62,5 g/ha): 100% | herbicidal activity (Alopecurus myosuroides; pre-emergence, 62,5 g/ha): 100%

COc1c(C)c(F)c(F)c(F)c1Nc1nc(N)nc(C(C)(C)F)n1 [Example 169]
herbicidal activity (Amaranthus retroflexus; pre-emergence, 62,5 g/ha): 100% | herbicidal activity (Alopecurus myosuroides; pre-emergence, 62,5 g/ha): 100% | herbicidal activity (Echinochloa crus-galli; pre-emergence, 62,5 g/ha): 100%

C=CC(C)(F)c1nc(N)nc(Nc2c(F)c(F)c(F)c(Cl)c2OC)n1 (stereo not drawn) [Example 173]
herbicidal activity (Setaria faberi; pre-emergence, 62,5 g/ha): 95% | herbicidal activity (Amaranthus retroflexus; pre-emergence, 62,5 g/ha): 100% | herbicidal activity (Alopecurus myosuroides; pre-emergence, 62,5 g/ha): 100%
